According to patent US20250082674A1, “METHODS OF TREATING COPPER METABOLISM-ASSOCIATED DISEASES OR DISORDERS” (priority 2021, published 2025):

Settings: in vivo

Bis-choline tetrathiomolybdate [BC-TTM]
23: Infections and infestations, E events
27.9%: Infections and infestations, participants (%)
11.5%: AEs in SOC Metabolism and nutrition disorders | Blood and lymphatic system disorders, participants (%) | Injury, poisoning and procedural complications, participants (%) | Metabolism and nutrition disorders, participants (%)
5: Cardiac disorders, E events | Fatigue, E events | Fatigue, N participants | Rash, E events | Vascular disorders, E events
not observed: imbalances in neurologic and psychiatric events after switch from SoC to BC-TTM
29.5%: AEs in SOC Investigations | Gastrointestinal disorders, participants (%) | Investigations, participants (%)
4.9%: Cardiac disorders, participants (%) | Gamma-glutamyltransferase increased, participants (%) | Hepatic enzyme increased, participants (%) | Psychiatric disorders, participants (%) | Respiratory, thoracic, and mediastinal disorders, participants (%) | Vascular disorders, participants (%)
10: Metabolism and nutrition disorders, E events
1: Anxiety, E events | Anxiety, N participants | Dyslipidemia, E events | Dyslipidemia, N participants | Ear and labyrinth disorders, E events | Ear and labyrinth disorders, N participants | Eczema, E events | Eczema, N participants | Hand dermatitis, E events | Hand dermatitis, N participants | Hyperlipidaemia, E events | Hyperlipidaemia, N participants | Hypertriglyceridaemia, N participants | Neoplasms benign, malignant, and unspecified (incl cysts and polyps), E events | Neoplasms benign, malignant, and unspecified (incl cysts and polyps), N participants | Neutrophil count decreased, E events | Neutrophil count decreased, N participants | Post-traumatic stress disorder, E events | Post-traumatic stress disorder, N participants | Pyrexia, E events | Pyrexia, N participants | Rash pruritic, E events | Rash pruritic, N participants | Rash, N participants | Renal and urinary disorders, N participants | Sleep disorder, E events | Sleep disorder, N participants
13.1%: AEs in SOC Skin and subcutaneous tissue disorders | Skin and subcutaneous tissue disorders, participants (%)
18: Blood and lymphatic system disorders, E events | Gastrointestinal disorders, N participants | Investigations, N participants
30: Gastrointestinal disorders, E events
8.2%: Fatigue, participants (%)
4: Aspartate aminotransferase increased, E events | Aspartate aminotransferase increased, N participants | Respiratory, thoracic, and mediastinal disorders, E events
14: Alanine aminotransferase increased, E events
6.6%: Aspartate aminotransferase increased, participants (%)
12: Alanine aminotransferase increased, N participants | Nervous system disorders, E events
18.0%: Nervous system disorders, participants (%)
0: Affective disorder, E events | Affective disorder, N participants | Attention deficit hyperactivity disorder, E events | Attention deficit hyperactivity disorder, N participants | Congenital, familial, and genetic disorders, E events | Congenital, familial, and genetic disorders, N participants | Eye disorders, E events | Eye disorders, N participants | Product issues, E events | Product issues, N participants | Reproductive system and breast disorders, E events | Reproductive system and breast disorders, N participants | Restlessness, E events | Restlessness, N participants
29: Investigations, E events
2: Hepatobiliary disorders, N participants | Pruritus, E events | Pruritus, N participants | Renal and urinary disorders, E events
15: Skin and subcutaneous tissue disorders, E events
13: Injury, poisoning and procedural complications, E events
3: Cardiac disorders, N participants | Gamma-glutamyltransferase increased, E events | Gamma-glutamyltransferase increased, N participants | Hepatic enzyme increased, E events | Hepatic enzyme increased, N participants | Hepatobiliary disorders, E events | Hypertriglyceridaemia, E events | Psychiatric disorders, E events | Psychiatric disorders, N participants | Respiratory, thoracic, and mediastinal disorders, N participants | Vascular disorders, N participants
7: Blood and lymphatic system disorders, N participants | Injury, poisoning and procedural complications, N participants | Metabolism and nutrition disorders, N participants
17: Infections and infestations, N participants
1.6%: Anxiety, participants (%) | Dyslipidemia, participants (%) | Ear and labyrinth disorders, participants (%) | Eczema, participants (%) | Hand dermatitis, participants (%) | Hyperlipidaemia, participants (%) | Hypertriglyceridaemia, participants (%) | Neoplasms benign, malignant, and unspecified (incl cysts and polyps), participants (%) | Neutrophil count decreased, participants (%) | Post-traumatic stress disorder, participants (%) | Pyrexia, participants (%) | Rash pruritic, participants (%) | Rash, participants (%) | Renal and urinary disorders, participants (%) | Sleep disorder, participants (%)
3.3%: Hepatobiliary disorders, participants (%) | Pruritus, participants (%)
19.7%: Alanine aminotransferase increased, participants (%)
8: Skin and subcutaneous tissue disorders, N participants
11: Nervous system disorders, N participants
